# Measurements taken from ChEMBL document CHEMBL5346921, “Discovery of novel benzamide derivatives bearing benzamidophenyl and phenylacetamidophenyl scaffolds as potential antitumor agents via targeting PARP-1” (Eur J Med Chem, 2023).
# Assays:
# HCT-116 [1] = assay: Induction of apoptosis in human HCT-116 cells assessed as early apoptotic cells at 1.5 uM incubated for 72 hrs by AnnexinV-FITC/PI staining based analysis (reference value: 1.05%); format: functional
# HCT-116 [2] = assay: Induction of apoptosis in human HCT-116 cells assessed as early apoptotic cells at 7.5 uM incubated for 48 hrs by AnnexinV-FITC/PI staining based flow cytometry (reference value: 2.11%); format: functional
# HCT-116 [3] = assay: Induction of apoptosis in human HCT-116 cells assessed as late apoptotic cells at 7.5 uM incubated for 72 hrs by AnnexinV-FITC/PI staining based analysis (reference value: 0%); format: functional
# SW480 = assay: cells; conditions: Homo sapiens, SW480, 48 h
# Description: Antiproliferative activity against human SW480 cells assessed as reduction in cell viability incubated for 48 hrs by MTT assay
# HCT-116 [4] = assay: Induction of cell cycle arrest in human HCT-116 cells assessed as accumulation of cells at G2/M phase at 7.5 uM incubated for 48 hrs by PI staining based flow cytometry (reference value: 24.7%); format: functional
# HCT-116 [5] = assay: Inhibition of cell migration in human HCT-116 cells at 0.3 uM incubated for 48 hrs by wound healing assay; format: functional
# [6] = target: Poly [ADP-ribose] polymerase 2 (Homo sapiens, UniProt Q9UGN5); assay: Inhibition of human PARP-2 by ELISA
# Poly [ADP-ribose] polymerase 2, sequence (Q9UGN5 whole entry): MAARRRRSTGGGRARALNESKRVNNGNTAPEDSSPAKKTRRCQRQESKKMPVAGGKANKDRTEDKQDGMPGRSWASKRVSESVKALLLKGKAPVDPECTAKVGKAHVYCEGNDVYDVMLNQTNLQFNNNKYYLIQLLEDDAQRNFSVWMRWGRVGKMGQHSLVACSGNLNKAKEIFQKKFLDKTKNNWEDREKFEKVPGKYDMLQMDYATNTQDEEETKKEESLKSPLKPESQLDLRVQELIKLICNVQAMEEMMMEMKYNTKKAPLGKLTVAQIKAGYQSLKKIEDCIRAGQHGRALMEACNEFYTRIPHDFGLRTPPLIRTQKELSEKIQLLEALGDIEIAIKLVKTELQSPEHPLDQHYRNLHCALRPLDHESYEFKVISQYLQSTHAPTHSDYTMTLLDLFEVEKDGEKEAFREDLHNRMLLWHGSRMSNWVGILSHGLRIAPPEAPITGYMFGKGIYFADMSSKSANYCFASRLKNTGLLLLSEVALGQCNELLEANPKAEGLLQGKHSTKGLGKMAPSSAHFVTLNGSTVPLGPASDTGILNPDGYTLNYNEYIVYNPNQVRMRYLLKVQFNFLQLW
# HCT-116 [7] = assay: Induction of mitochondrial membrane potential loss in human HCT-116 cells assessed as JC-1 aggregate level by measuring red fluorescence intensity at 0.3 uM incubated for 48 hrs by JC-1 staining based flow cytometry (reference value: 96.72%); format: functional
# HCT-116 [8] = assay: Induction of cell cycle arrest in human HCT-116 cells assessed as accumulation of cells at G2/M phase at 1.5 uM incubated for 72 hrs by PI staining based flow cytometry (reference value: 25.4%); format: functional
# [9] = Cytotoxicity against human NCM460 cells assessed as reduction in cell viability incubated for 48 hrs by MTT assay; format: toxicity, cell-based
# HCT-116 [10] = assay: Induction of cell cycle arrest in human HCT-116 cells assessed as accumulation of cells at G2/M phase at 0.3 uM incubated for 48 hrs by PI staining based flow cytometry (reference value: 24.7%); format: functional
# HCT-116 [11] = assay: Induction of apoptosis in human HCT-116 cells assessed as late apoptotic cells at 1.5 uM incubated for 48 hrs by AnnexinV-FITC/PI staining based flow cytometry (reference value: 0%); format: functional
# HCT-116 [12] = assay: Induction of apoptosis in human HCT-116 cells assessed as necrotic cells at 0.3 uM incubated for 72 hrs by AnnexinV-FITC/PI staining based analysis (reference value: 0%); format: functional
# HCT-116 [13] = assay: Induction of DNA double-strand breaks in human HCT-116 cells assessed as gammaH2AX accumulation incubated for 48 hrs by western blot analysis; format: functional, cell-based; conditions: dose 0.3-3 µM
# HCT-116 [14] = assay: Induction of apoptosis in human HCT-116 cells assessed as viable cells at 1.5 uM incubated for 48 hrs by AnnexinV-FITC/PI staining based flow cytometry (reference value: 97.89%); format: functional; conditions: read-out: Activity
# HCT-116 [15] = assay: Induction of apoptosis in human HCT-116 cells assessed as late apoptotic cells at 7.5 uM incubated for 48 hrs by AnnexinV-FITC/PI staining based flow cytometry (reference value: 0%); format: functional
# HCT-116 [16] = assay: Induction of apoptosis in human HCT-116 cells assessed as necrotic cells at 0.3 uM incubated for 48 hrs by AnnexinV-FITC/PI staining based flow cytometry (reference value: 0%); format: functional
# HCT-116 [17] = assay: Induction of apoptosis in human HCT-116 cells assessed as late apoptotic cells at 1.5 uM incubated for 72 hrs by AnnexinV-FITC/PI staining based analysis (reference value: 0%); format: functional
# HCT-116 [18] = assay: Inhibition of cell migration in human HCT-116 cells at 0.3 uM incubated for 24 hrs by wound healing assay; format: functional
# HCT-116 [19] = assay: Induction of mitochondrial membrane potential loss in human HCT-116 cells assessed as JC-1 monomer level by measuring green fluorescence intensity at 3 uM incubated for 48 hrs by JC-1 staining based flow cytometry (reference value: 3.28%); format: functional
# HCT-116 [20] = assay: Induction of cell cycle arrest in human HCT-116 cells assessed as accumulation of cells at G0/G1 phase at 0.3 uM incubated for 48 hrs by PI staining based flow cytometry (reference value: 62.1%); format: functional
# HCT-116 [21] = assay: Induction of apoptosis in human HCT-116 cells assessed as late apoptotic cells at 0.3 uM incubated for 48 hrs by AnnexinV-FITC/PI staining based flow cytometry (reference value: 0%); format: functional
# HCT-116 [22] = assay: Induction of apoptosis in human HCT-116 cells assessed as decrease in Bcl-2 protein expression incubated for 48 hrs by western blot analysis; format: functional, cell-based; conditions: dose 0.3-3 µM
# HCT-116 [23] = assay: Induction of apoptosis in human HCT-116 cells assessed as early apoptotic cells at 0.3 uM incubated for 72 hrs by AnnexinV-FITC/PI staining based analysis (reference value: 1.05%); format: functional
# HCT-116 [24] = assay: Inhibition of colony formation in human HCT-116 cells pretreated for 48 hrs followed by replacement of fresh medium and measured every 3 days by crystal violet staining based analysis; format: functional, cell-based; conditions: dose 0.3-3 µM
# HCT-116 [25] = assay: Induction of cell cycle arrest in human HCT-116 cells assessed as accumulation of cells at S phase at 1.5 uM incubated for 48 hrs by PI staining based flow cytometry (reference value: 14.5%); format: functional
# HCT-116 [26] = assay: Induction of apoptosis in human HCT-116 cells assessed as viable cells at 0.3 uM incubated for 48 hrs by AnnexinV-FITC/PI staining based flow cytometry (reference value: 97.89%); format: functional; conditions: read-out: Activity
# HCT-116 [27] = assay: Induction of apoptosis in human HCT-116 cells assessed as viable cells at 7.5 uM incubated for 48 hrs by AnnexinV-FITC/PI staining based flow cytometry (reference value: 97.89%); format: functional; conditions: read-out: Activity
# [28] = Selectivity index, ratio of IC50 for cytotoxicity against human NCM460 cells to IC50 for antiproliferative activity against human HCT-116 cells; format: toxicity, cell-based; conditions: NCM460 cells and HCT-116 cells, read-out: Ratio IC50
# HCT-116 [29] = assay: Induction of cell cycle arrest in human HCT-116 cells assessed as accumulation of cells at S phase at 7.5 uM incubated for 48 hrs by PI staining based flow cytometry (reference value: 14.5%); format: functional
# HCT-116 [30] = assay: Induction of mitochondrial membrane potential loss in human HCT-116 cells assessed as JC-1 monomer level by measuring green fluorescence intensity at 0.3 uM incubated for 48 hrs by JC-1 staining based flow cytometry (reference value: 3.28%); format: functional
# DLD-1 = assay: Antiproliferative activity against human DLD-1 cells assessed as reduction in cell viability incubated for 48 hrs by MTT assay; format: functional, cell-based; conditions: DLD-1, 48 h
# HCT-116 [31] = assay: Induction of apoptosis in human HCT-116 cells assessed as early apoptotic cells at 0.3 uM incubated for 48 hrs by AnnexinV-FITC/PI staining based flow cytometry (reference value: 2.11%); format: functional
# HCT-116 [32] = assay: Induction of mitochondrial membrane potential loss in human HCT-116 cells assessed as JC-1 aggregate level by measuring red fluorescence intensity at 1 uM incubated for 48 hrs by JC-1 staining based flow cytometry (reference value: 96.72%); format: functional
# HCT-116 [33] = assay: Induction of apoptosis in human HCT-116 cells assessed as increase in Bax protein expression incubated for 48 hrs by western blot analysis; format: functional, cell-based; conditions: dose 0.3-3 µM
smiles,measurement,setting,value
NC(=O)c1ccccc1OCc1cccc(NC(=O)c2ccc(Br)cc2)c1,Activity,HCT-116 [1],30.42%
same,Activity,HCT-116 [2],40.9%
same,Activity,HCT-116 [3],0.05%
same,IC50,SW480,33.7 µM
same,Activity,HCT-116 [4],41%
same,inhibition at 0.3 µM,HCT-116 [5],30.5%
same,IC50,[6],0.00234 µM
same,Activity,HCT-116 [7],90.62%
same,Activity,HCT-116 [8],35.5%
same,IC50 at 48 h,[9],487 µM
same,Activity,HCT-116 [10],28.6%
same,Activity,HCT-116 [11],2.97%
same,Activity,HCT-116 [12],0%
same,Activity,HCT-116 [13],Dose-Dependent Effect
same,viability at 1.5 µM,HCT-116 [14],73%
same,Activity,HCT-116 [15],1.19%
same,Activity,HCT-116 [16],0.23%
same,Activity,HCT-116 [17],0.26%
same,inhibition at 0.3 µM,HCT-116 [18],12.4%
same,Activity,HCT-116 [19],50.03%
same,Activity,HCT-116 [20],60.7%
same,Activity,HCT-116 [21],0.25%
same,Activity,HCT-116 [22],Dose-Dependent Effect
same,Activity,HCT-116 [23],23.69%
same,inhibition,HCT-116 [24],Dose-Dependent Effect
same,Activity,HCT-116 [25],12.5%
same,viability at 0.3 µM,HCT-116 [26],90.4%
same,viability at 7.5 µM,HCT-116 [27],57.4%
same,selectivity ratio,[28],1640
same,Activity,HCT-116 [29],10.4%
same,Activity,HCT-116 [30],9.38%
same,IC50,DLD-1,2.83 µM
same,Activity,HCT-116 [31],9.12%
same,Activity,HCT-116 [32],85.84%
same,Activity,HCT-116 [33],Dose-Dependent Effect
